Assays:
[1] = test system: TGF-α expression in oval cells; test: TGF-α expression in oval cells in a rat induced by D-galactosamine hydrochloride, anti TGF-α immunohistological staining; type: in vivo; details: 200 mg/kg/day orally for four days; control strongly positive; FIG. 15
Protocol: Male SD rats (Crj/CD (SD), 6-week old) were used as an animal, and D-galactosamine hydrochloride (5 ml/kg) prepared as 200 mg/mL with physiological saline was intraperitoneally administered once to each rat to induce oval cells. NIK-333 was suspended in soybean oil, and a dose of 200 mg/kg was orally administered to each rat for 1 to 6 days. To the control group, soybean oil (2 mL/kg) was orally administered. From the next day to 7 days after the start of the administration, the livers were extirpated under anesthesia with passage of time. The livers were subjected to 10% formalin fixation and paraffin embedding, and further to immunological staining by using an anti TGF-α antibody. TGF-α expression levels were analyzed under microscope.
FIGS. 13 to 15 are photographs showing inhibitory effects on TGF-α expression in oval cells induced by the administration of D-galactosamine hydrochloride, when 200 mg/kg/day of NIK-333 was administered for four days (immunohistological staining using an anti TGF-α antibody). Similar observations were obtained in other animals which were analyzed at the same time.

[2] = test system: TGF-α expression in oval cells; test: Induction of TGF-α positive oval cells of a rat by 3′-MeDAB, anti TGF-α immunohistological staining of liver; type: in vivo
Protocol: Male Fischer rats (F344/N Slc, 6-week old) were used as an animal, and the rats were given with solid feed prepared to contain a hepatic chemical carcinogen 3′-MeDAB in a ratio of 0.06% for four weeks to induce oval cells. NIK-333 was suspended in soybean oil, and a dose of 80 mg/kg was orally administered to each rat for four weeks (once/a day) along with the administration of 3′-MeDAB. To a control group, soybean oil (5 mL/kg) was orally administered. After 4 weeks from the start of the administration of 3′-MeDAB, livers were extirpated under anesthesia. The livers were subjected to 10% formalin fixation and paraffin embedding, and further to immunological staining by using an anti TGF-α antibody. TGF-α expression levels were analyzed under microscope.
FIGS. 1 to 3 are photographs showing inhibitory effects on induction of TGF-α positive oval cells induced by the four-week administration of 3′-MeDAB, when 80 mg/kg/day of NIK-333 was simultaneously administered for four weeks (immunohistological staining by using the anti TGF-α antibody). Similar observations were obtained in other animals which were analyzed at the same time.

[3] = test system: hepatoma; details: clinical, cited from earlier work
[4] = test system: TGF-α expression in non-tumor hepatic tissue; test: TGF-α expression in non-tumor hepatic tissue of a rat after DEN administration, anti TGF-α immunohistological staining; type: in vivo; details: 80 mg/kg/day orally for 14 weeks from one week after 5-week DEN; control strongly positive; FIGS. 6 and 9
Protocol: Male Fischer rats (F344/N Slc, 6-week old) were used as an animal, and the rats were administered with a hepatic chemical carcinogen DEN for 5 weeks in a form of drinking water (concentration: 40 ppm), and then bred with normal drinking water for successive 15 weeks to induce hepatocellular carcinoma. NIK-333 was suspended in soybean oil, and a dose of 80 mg/kg was orally administered to each rat for 14 weeks (once/a day) from one week after the end of the administration of DEN. To a control group, soybean oil (5 mL/kg) was orally administered. After 20 weeks from the start of the administration of DEN, livers were extirpated under anesthesia. The livers were subjected to 10% formalin fixation and paraffin embedding, and further to immunological staining by using an anti TGF-α antibody. TGF-α expression levels were analyzed under microscope.
FIGS. 4 to 6 are photographs showing inhibitory effects on TGF-α expression in a non-tumor hepatic tissue, when the administration was ceased for one week after the 5-week treatment with DEN, and then 80 mg/kg/day of NIK-333 was administered for 14 weeks (immunohistological staining by using an anti TGF-α antibody). Similar observations were obtained in other animals which were analyzed at the same time.

For `CC(C)=CCC/C(C)=C/CC/C(C)=C/C=C/C(C)=C/C(=O)O` [NIK-333, (2E,4E,6E,10E)-3,7,11,15-tetramethyl-2,4,6,10,14-hexadecapentaenoic acid], the “TGF-α observation of oval cells expressed by D-galactosamine hydrochloride” value [1] was “weakly positive”, the “TGF-α observation of oval cells expressed with 3′-MeDAB” value ([2]; 80 mg/kg/day orally for four weeks along with 0.06% 3′-MeDAB feed, control strongly positive, FIG. 3) was “weakly positive” and the “number of oval cells with strongly positive TGF-α observation, expressed with 3′-MeDAB” value ([2]; 80 mg/kg/day orally for four weeks along with 3′-MeDAB, versus control, FIG. 12) was “reduced”. For the same compound, the “side effect such as dysfunction of liver and those with other retinoids” value ([3]; during one-year administration) was “almost no side effect”, the “recurrence after radical cure of hepatoma” value ([3]; long-term administration for one year) was “significantly suppressed” and the “TGF-α observation in hepatic tissues surrounding the central vein, expressed by DEN” value [4] was “almost negative”.
